Literature values, collected in patent publication US11534622B2, “Non-invasive systems and methods for selective activation of photoreactive responses” (IMMUNOLIGHT, LLC, priority 2014, dated 2022).

How the values were obtained:
[1] = clinical use
[2] = test system: tumors; details: in vivo
[3] = orange juice, high UV exposure of 100 mJ/cm^2

## Oc1cccc(-c2c3nc(c(-c4cccc(O)c4)c4ccc([nH]4)c(-c4cccc(O)c4)c4nc(c(-c5cccc(O)c5)c5ccc2[nH]5)CC4)C=C3)c1 [Foscan, Tetra (m-hydroxyphenyl) chlorin]
[1]
  duration of skin photosensitivity: approximately 2 weeks

## CC(=O)[O-].CC(=O)[O-].CCc1c(CC)c2cc3nc(cnc4cc(OCCOCCOCCOC)c(OCCOCCOCCOC)cc4ncc4nc(cc1[n-]2)C(CCCO)=C4C)C(C)=C3CCCO.O.[Lu+3] [Lutetium texaphryin, Motexafin lutetium]
[2]
  selectivity for tumors compared to normal tissues: one of the greatest reported selectivities for tumors

## O=C1O[C@H]([C@@H](O)CO)C(O)=C1O [Vitamin C]
[3]
  degradation of Vitamin C: 17%
